Reference: ChEMBL document CHEMBL3885881, “DrugMatrix”

Species: Rattus norvegicus
Experiment: DrugMatrix - Regimen: Daily Repeat
Format: toxicity, organism-based, Sprague-Dawley
Parameters: regimen Daily Repeat, gender Male, age 6-8 weeks
Conditions: in vivo, po, route oral GAVAGE, […]; for ABSOLUTE BASOPHIL / ABSOLUTE EOSINOPHIL / ABSOLUTE LYMPHOCYTE / ABSOLUTE MONOCYTE / ABSOLUTE SEGMENTED NEUTROPHIL / BASOPHIL / EOSINOPHIL / ERYTHROCYTE COUNT / HEMATOCRIT / HEMOGLOBIN / LEUKOCYTE COUNT / LYMPHOCYTE / MEAN CORPUSCULAR HEMOGLOBIN / MEAN CORPUSCULAR HEMOGLOBIN CONCENTRATION / MEAN CORPUSCULAR VOLUME / MONOCYTE / NEUTROPHIL / NUCLEATED RED BLOOD CELLS / PLATELET COUNT: tissue Blood; for ALANINE AMINOTRANSFERASE / ALBUMIN / ALKALINE PHOSPHATASE / ASPARTATE AMINOTRANSFERASE / BLOOD UREA NITROGEN / CARBON DIOXIDE / CHLORIDE / CHOLESTEROL / CREATINE PHOSPHOKINASE / CREATININE / GLUCOSE / LACTATE DEHYDROGENASE / LIPASE / PHOSPHORUS / POTASSIUM / SODIUM / TOTAL BILIRUBIN / TOTAL PROTEIN / URIC ACID: tissue Plasma
[1] = 0 mg/kg, 72 h, dose level Control, time 3 day
[2] = 0 mg/kg, 120 h, dose level Control, time 5 day
[3] = 100 mg/kg, 72 h, dose level Low, time 3 day

SMILES: CC(C)(Oc1ccc(Cl)cc1)C(=O)O [CLOFIBRIC ACID]
- ABSOLUTE BASOPHIL [1]: 0 CELLS/uL
- ABSOLUTE EOSINOPHIL [1]: 0 CELLS/uL
- ABSOLUTE LYMPHOCYTE [1]: 14687.67 CELLS/uL
- ABSOLUTE MONOCYTE [1]: 164 CELLS/uL
- ABSOLUTE SEGMENTED NEUTROPHIL [1]: 1748.33 CELLS/uL
- BASOPHIL [1]: 0%
- EOSINOPHIL [1]: 0%
- ERYTHROCYTE COUNT [1]: 5.51 x10E6/uL
- HEMATOCRIT [1]: 33.68%
- HEMOGLOBIN [1]: 13.4 G/DL
- LEUKOCYTE COUNT [1]: 16.6 x10E3/uL
- LYMPHOCYTE [1]: 88.83%
- MEAN CORPUSCULAR HEMOGLOBIN [1]: 24.47 pg
- MEAN CORPUSCULAR HEMOGLOBIN CONCENTRATION [1]: 39.82 G/DL
- MEAN CORPUSCULAR VOLUME [1]: 61.23 fL
- MONOCYTE [1]: 0.83%
- NEUTROPHIL [1]: 10.33%
- NUCLEATED RED BLOOD CELLS [1]: 0 /100WBC
- PLATELET COUNT [1]: 1329.67 x10E3/uL
- ALANINE AMINOTRANSFERASE [1]: 61.33 u/L
- ALBUMIN [1]: 4.18 G/DL
- ALKALINE PHOSPHATASE [1]: 332.5 u/L
- ASPARTATE AMINOTRANSFERASE [1]: 98.33 u/L
- BLOOD UREA NITROGEN [1]: 15.83 mg/dL
- CARBON DIOXIDE [1]: 27.83 mmol/L
- CHLORIDE [1]: 100 MEQ/L
- CHOLESTEROL [1]: 76.17 mg/dL
- CREATINE PHOSPHOKINASE [1]: 729.17 u/L
- CREATININE [1]: 0.21 mg/dL
- GLUCOSE [1]: 151.83 mg/dL
- LACTATE DEHYDROGENASE [1]: 484.67 u/L
- LIPASE [1]: 10 u/L
- PHOSPHORUS [1]: 11.3 mg/dL
- POTASSIUM [1]: 6.1 MEQ/L
- SODIUM [1]: 142.9 MEQ/L
- TOTAL BILIRUBIN [1]: 0.23 mg/dL
- TOTAL PROTEIN [1]: 5.68 G/DL
- URIC ACID [1]: 1.75 mg/dL
- ABSOLUTE BASOPHIL [2]: 0 CELLS/uL
- ABSOLUTE EOSINOPHIL [2]: 58.67 CELLS/uL
- ABSOLUTE LYMPHOCYTE [2]: 15950.83 CELLS/uL
- ABSOLUTE MONOCYTE [2]: 172.5 CELLS/uL
- ABSOLUTE SEGMENTED NEUTROPHIL [2]: 2551.33 CELLS/uL
- BASOPHIL [2]: 0%
- EOSINOPHIL [2]: 0.33%
- ERYTHROCYTE COUNT [2]: 5.5 x10E6/uL
- HEMATOCRIT [2]: 34.05%
- HEMOGLOBIN [2]: 13.42 G/DL
- LEUKOCYTE COUNT [2]: 18.73 x10E3/uL
- LYMPHOCYTE [2]: 84.5%
- MEAN CORPUSCULAR HEMOGLOBIN [2]: 24.42 pg
- MEAN CORPUSCULAR HEMOGLOBIN CONCENTRATION [2]: 39.42 G/DL
- MEAN CORPUSCULAR VOLUME [2]: 61.97 fL
- MONOCYTE [2]: 1%
- NEUTROPHIL [2]: 14.17%
- NUCLEATED RED BLOOD CELLS [2]: 0.33 /100WBC
- PLATELET COUNT [2]: 1143.17 x10E3/uL
- ALANINE AMINOTRANSFERASE [2]: 57 u/L
- ALBUMIN [2]: 4.17 G/DL
- ALKALINE PHOSPHATASE [2]: 347.33 u/L
- ASPARTATE AMINOTRANSFERASE [2]: 93.67 u/L
- BLOOD UREA NITROGEN [2]: 15.67 mg/dL
- CARBON DIOXIDE [2]: 27.17 mmol/L
- CHLORIDE [2]: 104.33 MEQ/L
- CHOLESTEROL [2]: 69.5 mg/dL
- CREATINE PHOSPHOKINASE [2]: 317.17 u/L
- CREATININE [2]: 0.2 mg/dL
- GLUCOSE [2]: 162.33 mg/dL
- LACTATE DEHYDROGENASE [2]: 408.67 u/L
- LIPASE [2]: 10.17 u/L
- PHOSPHORUS [2]: 11.08 mg/dL
- POTASSIUM [2]: 6.36 MEQ/L
- SODIUM [2]: 146.07 MEQ/L
- TOTAL BILIRUBIN [2]: 0.22 mg/dL
- TOTAL PROTEIN [2]: 5.92 G/DL
- URIC ACID [2]: 1.47 mg/dL
- ABSOLUTE BASOPHIL [3]: 0 CELLS/uL
- ABSOLUTE EOSINOPHIL [3]: 83.33 CELLS/uL
- ABSOLUTE LYMPHOCYTE [3]: 12714.67 CELLS/uL
- ABSOLUTE MONOCYTE [3]: 127.67 CELLS/uL
- ABSOLUTE SEGMENTED NEUTROPHIL [3]: 1507.67 CELLS/uL
- BASOPHIL [3]: 0%
- EOSINOPHIL [3]: 0.67%
- ERYTHROCYTE COUNT [3]: 5.9 x10E6/uL
- HEMATOCRIT [3]: 36.47%
- HEMOGLOBIN [3]: 14.53 G/DL
- LEUKOCYTE COUNT [3]: 14.43 x10E3/uL
- LYMPHOCYTE [3]: 88%
- MEAN CORPUSCULAR HEMOGLOBIN [3]: 24.67 pg
- MEAN CORPUSCULAR HEMOGLOBIN CONCENTRATION [3]: 39.87 G/DL
- MEAN CORPUSCULAR VOLUME [3]: 61.83 fL
- MONOCYTE [3]: 1%
- NEUTROPHIL [3]: 10.33%
- NUCLEATED RED BLOOD CELLS [3]: 0 /100WBC
- PLATELET COUNT [3]: 1176.67 x10E3/uL
- ALANINE AMINOTRANSFERASE [3]: 51 u/L
- ALBUMIN [3]: 4.33 G/DL
- ALKALINE PHOSPHATASE [3]: 364.33 u/L
- ASPARTATE AMINOTRANSFERASE [3]: 99.67 u/L
- BLOOD UREA NITROGEN [3]: 17 mg/dL
- CARBON DIOXIDE [3]: 27 mmol/L
- CHLORIDE [3]: 96 MEQ/L
- CHOLESTEROL [3]: 62 mg/dL
- CREATINE PHOSPHOKINASE [3]: 636.33 u/L
- CREATININE [3]: 0.34 mg/dL
- GLUCOSE [3]: 180.67 mg/dL
- LACTATE DEHYDROGENASE [3]: 303.67 u/L
- LIPASE [3]: 9.33 u/L
- PHOSPHORUS [3]: 11.9 mg/dL
- POTASSIUM [3]: 5.92 MEQ/L
- SODIUM [3]: 141 MEQ/L
- TOTAL BILIRUBIN [3]: 0.1 mg/dL
- TOTAL PROTEIN [3]: 5.8 G/DL
- URIC ACID [3]: 2.07 mg/dL
